According to patent US11932636B2, “RAD51 inhibitors” (Cyteir Therapeutics, Inc., priority 2019, dated 2024):

System: Daudi cells (AID positive)
Assay: Compound primary screening: cell death in AID positive Daudi cells (Cell-Titer Glo, Day 7)
Format: cell-based
Conditions: Homo sapiens, 168 h; Daudi cells, AID positive; cell death on Day 7, Cell-Titer Glo; read-out: Cellular activity in AID + (Daudi)
Summary of the method: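 AID-positive Daudi cells were seeded at 1250 cells per well and treated with serially diluted compound delivered from a DMSO/media master plate. Cultures were incubated at 37 °C, and cell death was measured on Day 7 with Cell-Titer Glo luminescence.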

| Structure (SMILES) | EC50 |
| --- | --- |
| CCNS(=O)(=O)c1cc(NC2CNC2)ccc1-c1cnc([C@H]2CC[C@H](NC(=O)OC(C)C)CC2)s1 [Compound 144, isopropyl trans-N-[4-[5-[4-(azetidin-3-ylamino)-2-(ethyl-sulfamoyl)phenyl]thiazol-2-yl]cyclohexyl]carbamate] | 100 to 1000 nM |
| CCNS(=O)(=O)c1cc(NC2CN(CC(C)C)C2)ccc1-c1cnc([C@H]2CC[C@H](NC(=O)OC(C)C)CC2)s1 [Compound 145, isopropyl trans-N-[4-[5-[2-(ethylsulfamoyl)-4-[(1-isobutyl-azetidin-3-yl)amino]phenyl]thiazol-2-yl]cyclohexyl]carbamate] | 100 to 1000 nM |
| CCNS(=O)(=O)c1cc(NC2CN(C(=O)C(C)C)C2)ccc1-c1cnc([C@H]2CC[C@H](NC(=O)OC(C)C)CC2)s1 [Compound 146, isopropyl trans-N-[4-[5-[2-(ethylsulfamoyl)-4-[[1-(2-methylpropanoyl)azetidin-3-yl]amino]phenyl]thiazol-2-yl]cyclohexyl]carbamate] | < 100 nM |
| CCNS(=O)(=O)c1cc(NC2(C)CNC2)ccc1-c1cnc([C@H]2CC[C@H](NC(=O)OC(C)C)CC2)s1 [Compound 147, isopropyl trans-N-[4-[5-[2-(ethylsulfamoyl)-4-[(3-methylazetidin-3-yl)amino]phenyl]thiazol-2-yl]cyclohexyl]carbamate] | 1000 to 10000 nM |
| CC(C)OC(=O)N[C@H]1CC[C@H](c2ncc(-c3ccc(Nc4ncc[nH]4)cc3S(=O)(=O)N3CCC3)s2)CC1 [Compound 148, isopropyl trans-N-[4-[5-[2-(azetidin-1-ylsulfonyl)-4-(1H-imidazol-2-ylamino)phenyl]thiazol-2-yl]cyclohexyl]carbamate] | < 100 nM |
| CCNS(=O)(=O)c1cc(Nc2cn[nH]n2)ccc1-c1cnc([C@H]2CC[C@H](NC(=O)OC(C)C)CC2)s1 [Compound 149, isopropyl trans-N-[4-[5-[2-(ethylsulfamoyl)-4-(2H-triazol-4-ylamino)phenyl]thiazol-2-yl]cyclohexyl]carbamate] | < 100 nM |
| CCNS(=O)(=O)c1cc(N(C)c2ncc[nH]2)ccc1-c1cnc([C@H]2CC[C@H](NC(=O)OC(C)C)CC2)s1 [Compound 150, isopropyl trans-N-[4-[5-[2-(ethylsulfamoyl)-4-[1H-imidazol-2-yl(methyl)amino]phenyl]thiazol-2-yl]cyclohexyl]carbamate] | 100 to 1000 nM |
| CC(C)OC(=O)N[C@H]1CC[C@H](c2ncc(-c3ccc(Nc4nnc[nH]4)cc3S(=O)(=O)NC(C)(C)C)s2)CC1 [Compound 151, isopropyl trans-N-[4-[5-[2-(tert-butylsulfamoyl)-4-(4H-1,2,4-triazol-3-ylamino)phenyl]thiazol-2-yl]cyclohexyl]carbamate] | < 100 nM |
| CCNS(=O)(=O)c1cc(Nc2nnc[nH]2)ccc1-c1cnc([C@H]2CC[C@H](NC(=O)OC(C)C)CC2)s1 [Compound 152, isopropyl trans-N-[4-[5-[2-(ethylsulfamoyl)-4-(4H-1,2,4-triazol-3-ylamino)phenyl]thiazol-2-yl]cyclohexyl]carbamate] | < 100 nM |
| CC(C)OC(=O)N[C@H]1CC[C@H](c2ncc(-c3ccc(Nc4ncco4)cc3S(=O)(=O)N3CCCC3)s2)CC1 [Compound 153, isopropyl trans-[4-[5-[4-(oxazol-2-ylamino)-2-pyrrolidin-1-ylsulfonyl-phenyl]thiazol-2-yl]cyclohexyl]carbamate] | < 100 nM |
| CCNS(=O)(=O)c1cc(Nc2nccn2C(C)C)ccc1-c1cnc([C@H]2CC[C@H](NC(=O)OC(C)C)CC2)s1 [Compound 154, isopropyl trans-N-[4-[5-[2-(ethylsulfamoyl)-4-[(1-isopropylimidazol-2-yl)amino]phenyl]thiazol-2-yl]cyclohexyl]carbamate] | < 100 nM |
| CCNS(=O)(=O)c1cc(Nc2ccnc(Cl)n2)ccc1-c1cnc([C@H]2CC[C@H](NC(=O)OC(C)C)CC2)s1 [Compound 155, isopropyl trans-N-[4-[5-[4-[(2-chloropyrimidin-4-yl)amino]-2-(ethylsulfamoyl)phenyl]thiazol-2-yl]cyclohexyl]carbamate] | 100 to 1000 nM |
| CCNS(=O)(=O)c1cc(Nc2ccnc(=O)[nH]2)ccc1-c1cnc([C@H]2CC[C@H](NC(=O)OC(C)C)CC2)s1 [Compound 156, isopropyl trans-N-[4-[5-[2-(ethylsulfamoyl)-4-[(2-hydroxypyrimidin-4-yl)amino]phenyl]thiazol-2-yl]cyclohexyl]carbamate] | 100 to 1000 nM |
| CCNS(=O)(=O)c1cc(Nc2ccc(CC)nn2)ccc1-c1cnc([C@H]2CC[C@H](NC(=O)OC(C)C)CC2)s1 [Compound 157, isopropyl trans-N-[4-[5-[4-[(6-ethylpyridazin-3-yl)amino]-2-(ethylsulfamoyl)phenyl]thiazol-2-yl]cyclohexyl]carbamate] | < 100 nM |
| CCNS(=O)(=O)c1cc(Nc2cc(CC)cnn2)ccc1-c1cnc([C@H]2CC[C@H](NC(=O)OC(C)C)CC2)s1 [Compound 158, isopropyl trans-N-[4-[5-[4-[(5-ethylpyridazin-3-yl)amino]-2-(ethylsulfamoyl)phenyl]thiazol-2-yl]cyclohexyl]carbamate] | 100 to 1000 nM |
| CCNS(=O)(=O)c1cc(Nc2ccc(Cl)nn2)ccc1-c1cnc([C@H]2CC[C@H](NC(=O)OC(C)C)CC2)s1 [Compound 159, isopropyl trans-N-[4-[5-[4-[(6-chloropyridazin-3-yl)amino]-2-(ethylsulfamoyl)phenyl]thiazol-2-yl]cyclohexyl]carbamate] | < 100 nM |
| CCNS(=O)(=O)c1cc(Nc2ccc(=O)[nH]n2)ccc1-c1cnc([C@H]2CC[C@H](NC(=O)OC(C)C)CC2)s1 [Compound 160, isopropyl trans-N-[4-[5-[2-(ethylsulfamoyl)-4-[(6-oxo-1H-pyridazin-3-yl)amino]phenyl]thiazol-2-yl]cyclohexyl]carbamate] | 100 to 1000 nM |
| CCNS(=O)(=O)c1cc(Nc2cc(C)cnn2)ccc1-c1cnc([C@H]2CC[C@H](NC(=O)OC(C)C)CC2)s1 [Compound 161, isopropyl trans-N-[4-[5-[2-(ethylsulfamoyl)-4-[(5-methylpyridazin-3-yl)amino]phenyl]thiazol-2-yl]cyclohexyl]carbamate] | < 100 nM |
| CCNS(=O)(=O)c1cc(Nc2ccc(C)nn2)ccc1-c1cnc([C@H]2CC[C@H](NC(=O)OC(C)C)CC2)s1 [Compound 162, isopropyl trans-N-[4-[5-[2-(ethylsulfamoyl)-4-[(6-methylpyridazin-3-yl)amino]phenyl]thiazol-2-yl]cyclohexyl]carbamate] | < 100 nM |
| CCNS(=O)(=O)c1cc(Nc2cnc(C(C)C)cn2)ccc1-c1cnc([C@H]2CC[C@H](NC(=O)OC(C)C)CC2)s1 [Compound 163, isopropyl trans-N-[4-[5-[2-(ethylsulfamoyl)-4-[(5-isopropylpyrazin-2-yl)amino]phenyl]thiazol-2-yl]cyclohexyl]carbamate] | 100 to 1000 nM |
| CCNS(=O)(=O)c1cc(Nc2cc(C(C)C)cnn2)ccc1-c1cnc([C@H]2CC[C@H](NC(=O)OC(C)C)CC2)s1 [Compound 164, isopropyl trans-N-[4-[5-[2-(ethylsulfamoyl)-4-[(5-isopropylpyridazin-3-yl)amino]phenyl]thiazol-2-yl]cyclohexyl]carbamate] | 100 to 1000 nM |
| CCNS(=O)(=O)c1cc(NC2(C)COC2)ccc1-c1cnc([C@H]2CC[C@H](NC(=O)OC)CC2)s1 [Compound 165, methyl trans-N-[4-[5-[2-(ethylsulfamoyl)-4-[(3-methyl-oxetan-3-yl)amino]phenyl]thiazol-2-yl]cyclohexyl]carbamate] | 1000 to 10000 nM |
| CCNS(=O)(=O)c1cc(Nc2cn[nH]c2)ccc1-c1cnc([C@H]2CC[C@H](NC(=O)OC)CC2)s1 [Compound 166, methyl trans-N-[4-[5-[2-(ethylsulfamoyl)-4-[(1H-pyrazol-4-yl)amino]phenyl]thiazol-2-yl]cyclohexyl]carbamate] | 1000 to 10000 nM |
| CCNS(=O)(=O)c1cc(Nc2ccn[nH]2)ccc1-c1cnc([C@H]2CC[C@H](NC(=O)OC)CC2)s1 [Compound 167, methyl trans-N-[4-[5-[2-(ethylsulfamoyl)-4-[(1H-pyrazol-5-yl)amino]phenyl]thiazol-2-yl]cyclohexyl]carbamate] | 100 to 1000 nM |
| CCNS(=O)(=O)c1cc(Nc2ccnn2C(C)C)ccc1-c1cnc([C@H]2CC[C@H](NC(=O)OC(C)(C)C)CC2)s1 [Compound 170, tert-butyl trans-N-[4-[5-[2-(ethylsulfamoyl)-4-[(2-isopropylpyrazol-3-yl)amino]phenyl]thiazol-2-yl]cyclohexyl]carbamate] | 100 to 1000 nM |
| CCNS(=O)(=O)c1cc(Nc2cc(C(C)C)ncn2)ccc1-c1cnc([C@H]2CC[C@H](NC(=O)OC(C)C)CC2)s1 [Compound 171, isopropyl trans-N-[4-[5-[2-(ethylsulfamoyl)-4-[(6-isopropylpyrimidin-4-yl)amino]phenyl]thiazol-2-yl]cyclohexyl]carbamate] | 100 to 1000 nM |
| CCNS(=O)(=O)c1cc(Nc2ccc(=O)n(C)n2)ccc1-c1cnc([C@H]2CC[C@H](NC(=O)OC(C)C)CC2)s1 [Compound 172, isopropyl trans-N-[4-[5-[2-(ethylsulfamoyl)-4-[(1-methyl-6-oxo-pyridazin-3-yl)amino]phenyl]thiazol-2-yl]cyclohexyl]carbamate] | 100 to 1000 nM |
| CC(C)OC(=O)N[C@H]1CC[C@H](c2ncc(-c3ccc(Nc4ccc(Cl)nn4)cc3S(=O)(=O)NC(C)(C)C)s2)CC1 [Compound 173, isopropyl trans-N-[4-[5-[2-(tert-butylsulfamoyl)-4-[(6-chloropyridazin-3-yl)amino]phenyl]thiazol-2-yl]cyclohexyl]carbamate] | 100 to 1000 nM |
| CC(C)OC(=O)N[C@H]1CC[C@H](c2ncc(-c3ccc(Nc4cccnn4)cc3S(=O)(=O)NC(C)(C)C)s2)CC1 [Compound 174, isopropyl trans-N-[4-[5-[2-(tert-butylsulfamoyl)-4-(pyridazin-3-ylamino)phenyl]thiazol-2-yl]cyclohexyl]carbamate] | 100 to 1000 nM |
